The values that follow come from ChEMBL document CHEMBL3808371, “Design, synthesis and biological evaluation of diaziridinyl quinone isoxazole hybrids” (Eur J Med Chem, 2016).

For one experiment, the system named is Pseudomonas aeruginosa. Nature of the experiment: Antimicrobial activity against Pseudomonas aeruginosa MTCC 2453 after 24 hrs by well diffusion method. Format: functional. As to conditions: MTCC 2453, 24 h. A general note: Agar diffusion results depend on both activity and mobility in agar.
The test system of experiment [1] is Micrococcus luteus. Nature of the experiment: Antimicrobial activity against Micrococcus luteus MTCC 2470 after 24 hrs by well diffusion method. Type of experiment: functional. As to conditions: MTCC 2470, 24 h.
Experiment [2] deals with Raoultella planticola. Nature of the experiment: Bactericidal activity against Klebsiella planticola MTCC 530 after 24 hrs by serial dilution method. Type of experiment: functional. As to conditions: MTCC 530, 24 h.
Experiment [3] deals with Raoultella planticola. Nature of the experiment: Antimicrobial activity against Klebsiella planticola MTCC 530 after 24 hrs by well diffusion method. Format: functional. As to conditions: MTCC 530, 24 h.
The subject of experiment [4] is Bacillus subtilis. Nature of the experiment: Bactericidal activity against Bacillus subtilis MTCC 121 after 24 hrs by serial dilution method. Format: functional. As to conditions: MTCC 121, 24 h.
Experiment [5] deals with A549. Nature of the experiment: Selectivity ratio of IC50 for human PC3 cells to IC50 for human A549 cells. Type of experiment: functional.
Another experiment has as its system Candida albicans. Nature of the experiment: Antimicrobial activity against Candida albicans MTCC 3017 after 24 hrs by well diffusion method. Format: functional. As to conditions: MTCC 3017, 24 h.
Experiment [6] deals with Staphylococcus aureus. Nature of the experiment: Antibiofilm activity against Staphylococcus aureus MTCC 96 after 24 hrs by crystal violet staining based assay. Format: functional, organism-based. As to conditions: MTCC 96, 24 h.
Experiment [7] relates to Raoultella planticola. Nature of the experiment: Antibiofilm activity against Klebsiella planticola MTCC 530 after 24 hrs by crystal violet staining based assay. Format: functional, organism-based. As to conditions: MTCC 530, 24 h.
Experiment [8] deals with Staphylococcus aureus. Nature of the experiment: Bactericidal activity against Staphylococcus aureus MTCC 96 after 24 hrs by serial dilution method. Format: functional. As to conditions: MTCC 96, 24 h.
The test system of experiment [9] is Micrococcus luteus. Nature of the experiment: Antibiofilm activity against Micrococcus luteus MTCC 2470 after 24 hrs by crystal violet staining based assay. Type of experiment: functional, organism-based. As to conditions: MTCC 2470, 24 h.
The test system of another experiment is Escherichia coli. Nature of the experiment: Antimicrobial activity against Escherichia coli MTCC 739 after 24 hrs by well diffusion method. Format: functional. As to conditions: MTCC 739, 24 h.
Experiment [10] has as its system Staphylococcus aureus. Nature of the experiment: Antibiofilm activity against Staphylococcus aureus MLS16 MTCC 2940 after 24 hrs by crystal violet staining based assay. Type of experiment: functional, organism-based. As to conditions: MLS16 MTCC 2940, 24 h.
The test system of experiment [11] is Micrococcus luteus. Nature of the experiment: Bactericidal activity against Micrococcus luteus MTCC 2470 after 24 hrs by serial dilution method. Format: functional. As to conditions: MTCC 2470, 24 h.
Experiment [12] relates to Staphylococcus aureus. Nature of the experiment: Antimicrobial activity against Staphylococcus aureus MLS16 MTCC 2940 after 24 hrs by well diffusion method. Format: functional. As to conditions: MLS16 MTCC 2940, 24 h.
Experiment [13] is described as follows: Cytotoxicity against human PC3 cells after 72 hrs by XTT assay. As to conditions: PC-3, 72 h. Format: functional, cell-based. A general note: Formazan colour is commonly taken as a measure of viable cells.
Experiment [14] relates to Staphylococcus aureus. Nature of the experiment: Bactericidal activity against Staphylococcus aureus MLS16 MTCC 2940 after 24 hrs by serial dilution method. Type of experiment: functional. As to conditions: MLS16 MTCC 2940, 24 h.
The subject of experiment [15] is Bacillus subtilis. Nature of the experiment: Antibiofilm activity against Bacillus subtilis MTCC 121 after 24 hrs by crystal violet staining based assay. As to conditions: MTCC 121, 24 h. Format: functional, organism-based.
The subject of experiment [16] is A549. Nature of the experiment: Cytotoxicity against human A549 cells after 72 hrs by XTT assay. Format: functional, cell-based. As to conditions: A549, 72 h.
Experiment [17] deals with Staphylococcus aureus. Nature of the experiment: Antimicrobial activity against Staphylococcus aureus MTCC 96 after 24 hrs by well diffusion method. Type of experiment: functional. As to conditions: MTCC 96, 24 h.
Experiment [18] relates to Bacillus subtilis. Nature of the experiment: Antimicrobial activity against Bacillus subtilis MTCC 121 after 24 hrs by well diffusion method. Format: functional. As to conditions: MTCC 121, 24 h.

≈ marks a conversion by molar mass, not a printed value. Where only a bound is given, the exact number is not on record here.

The term MIC denotes the lowest concentration that inhibits growth of the organism. Usually MBC stands for the smallest concentration meeting the test's criterion for killing. For orientation: IC50 means the concentration that inhibits the measured activity by half. Read a low IC50 as inhibition by little substance. In the case of `O=C1C=C(N2CC2)C(=O)C(c2cc(-c3ccc(C(=O)N4CCCCC4)s3)on2)=C1N1CC1`, the MIC against Pseudomonas aeruginosa was greater than 125 µg/mL; in the experiment on Micrococcus luteus [1] it was 62.5 µg/mL (≈ 139 µM); in the experiment on Raoultella planticola [3] it was 7.8 µg/mL (≈ 17.3 µM); against Candida albicans, 15.6 µg/mL (≈ 34.6 µM); in the experiment with Escherichia coli it was greater than 125 µg/mL; in the experiment on Staphylococcus aureus [12] it was 15.6 µg/mL (≈ 34.6 µM). Besides, the MIC against Staphylococcus aureus [17] came out at 15.6 µg/mL (≈ 34.6 µM); against Bacillus subtilis [18] it was 3.9 µg/mL (≈ 8.66 µM). For the same molecule, the minimal bactericidal concentration (MBC) against Raoultella planticola [2] was 15.6 µg/mL (≈ 34.6 µM); with Bacillus subtilis [4], 15.6 µg/mL (≈ 34.6 µM); in the experiment on Staphylococcus aureus [8], 31.2 µg/mL (≈ 69.3 µM); against Micrococcus luteus [11], 125 µg/mL (≈ 277 µM); in the experiment on Staphylococcus aureus [14], 62.5 µg/mL (≈ 139 µM). The “Ratio IC50” value with A549 [5] is 12. The IC50 with Staphylococcus aureus [6] was 11.2 µM; with Raoultella planticola [7], 5.4 µM; with Micrococcus luteus [9], 35.6 µM; in the experiment with Staphylococcus aureus [10], 9.8 µM; in experiment [13] it was 21.3 µM; with Bacillus subtilis [15], 2.8 µM. For the same molecule, the IC50 in the experiment with A549 [16] worked out at 1.7 µM.
